These results are taken from US20080113974A1, “Heterocyclic Oxime Compounds, A Process For Their Preparation And Pharmaceutical Compositions Containing Them” (LES LABORATOIRES SERVIER, priority 2005, published 2008).

The series concerns ob/ob mouse. Briefly: Antidiabetic and hypolipaemic effect in the ob/ob mouse. In kind it is in vivo. The following applies: dose of 3 mg/kg; for variation in body weight: four days, body weight measured daily. The protocol:
The 10-week-old female ob/ob mouse (Harlan) is used for the in vivo tests. The animals are kept in a light-darkness cycle of 12 hours at 25° C. The mouse has a basal hyperglycaemia of 2 g/l. The animals are randomly selected with regard to their glycaemia to form groups of six. […] […] The control groups receive the solvents under the same conditions as the treated groups.
The activity of the products is evaluated by measuring glycaemia, triglycerides and insulinaemia 24 hours after the final administration and by measuring body weight daily.

Where [1] appears, read: twice per day for four days, 24 hours after the final administration.

Each structure is given as a SMILES string.

In the case of `CCOC(Cc1ccc(OCCN2C(=O)COc3ccc(C(=NO)c4ccccc4)cc32)cc1)C(=O)O` (centres unmarked) [Example 11], the “variation in body weight” value is recorded as “insignificant variation”. Moreover, under setting [1], the reduction in glycaemia is reported as 25%, the reduction in insulinaemia came to 22% and the reduction in triglycerides was 45%.

On to `CN(CCOc1ccc(CC2SC(=O)NC2=O)cc1)c1ccccn1` (centres unmarked) [rosiglitazone, reference compound], for which the “variation in body weight” value was “significant increase”.
